These results are taken from US12012415B2, “Compositions and methods for the diagnosis, treatment and prevention of neoplastic and neurological disorders” (AscentGene, Inc., priority 2018, dated 2024).

“Also recorded” adds a separate entry of the source.

The target in assay [1] is PC4 protein (Homo sapiens, UniProt P53999). As to the kind of experiment: PC4-DNA binding interference. The note with it: for PC4 inhibition: high-throughput screen platform. The protocol: A number of small molecules were incubated with PC4 protein and DNA binding assessed.
Assay [2] has as its system Rat glioblastoma cell lines C6. As to the kind of experiment: Cell growth of glioblastoma cell line C6. In kind it is cell-based. The note with it: cell growth rate from number of live cells. As for the experimental part: (§1) Rat glioblastoma cell lines C6 (A) and human non-small cell lung cancer cell line H841 (B) were grown in the proper medium and treated with different concentration of drug candidate AG-1031 (P) and AG-1503 (#3). Cell growth rate was calculated based on the number of live cells as compared to concentration in M of selected small molecules of the invention (see FIGS. 6A and 6B).

For assay [3], the system named is human non-small cell lung cancer cell line H841. As to the kind of experiment: Cell growth of NSCLC cell lines. The note with it: cell growth rate from number of live cells. In kind it is cell-based. As for the experimental part:
as §1

Assay [4] has as its system A549 xenograft (NSCLC tumor). As to the kind of experiment: A549 xenograft mice, AG-1031 treatment after inoculation. Format: in vivo. The note with it: 20-40 μg/mice IP every other day, 28 days, after tumor formation. The protocol:
Mice were treated with AG-1031 (20-40 μg/mice) every other day via IP injection after A549 inoculate to the SHO mice treatment and followed for up to 28 days.
Tumor volume was measured during treatment of NSCLC cells with AG-1031 over 28 days.

For assay [5], the system named is A549 xenograft (NSCLC formation). Kind of assay: A549 xenograft mice, AG-1031 pre-injection (vaccine). In kind it is in vivo. As for the experimental part: AG-1031 was injected into mice two weeks before injection of tumor cell (see FIG. 9).
Tumor volume was measured for 35 days after administration of AG-1031 to xenograft mice.
IP inject with AG-1031 40 μg/mice, once a week (×2) before A549 cells inoculate to the SHO mice. Assessment of AG-1031 effect on tumor growth in A549 xenograft mice.

The test system of assay [6] is glioma (glioblastoma cell line C6). Kind of assay: C6 glioma xenograft model, tumor growth, behaviour and memory. In kind it is in vivo, rats. The note with it: for ability of new object recognition: rat, in vivo; for recovery of memory loss and loss of other activities: xenograft model of C6 cell line.

For the substance “9-methyl (I) and 13-methyl (II) trans-(+)-18-ethenyl-4,4a-dihydro-3,4-bis(methoxycarbonyl)4a,8,14,19-tetramethyl-23H, 25H-benzo[b]porphine-9,13-dipropanoate [AG-1031]”, the PC4 inhibition result in assay [1] is “strong PC4 inhibitor”. Besides, the “interference of PC4-DNA binding” value in assay [1] (small molecules incubated with PC4 protein, in vitro) is “significant interference of PC4-DNA binding; also recorded: specifically inhibits PC4 activity by blocking its double stranded DNA binding ability”. The “inhibition of growth of glioma cell line C6” value in assay [2] was “inhibition of rat glioblastoma cell line C6”. Besides, in assay [3], the “inhibition of growth of NSCLC cell lines” value is reported as “inhibition of human non-small cell lung cancer cell line H841; also recorded: inhibited non-small cell lung cancer (NSCLC) cell growth”. For the same substance, the “growth of NSCLC tumor” value in assay [4] is recorded as “inhibits growth of NSCLC tumor cells; also recorded: inhibiting tumor growth”. The tumor volume in assay [5] (AG-1031 injected two weeks before tumor cells, control 302.9 mm^3) turned out to be 69.0 mm^3. For the same substance, in assay [5] (measured for 35 days after administration), the tumor volumes result is “substantially reduces tumor volumes”. Also, in assay [5] (pre-injection of AG-1031 before tumor cells), the “prevention of tumor formation” value is recorded as “prevents NSCLC formation in vivo; also recorded: effectively prevented tumor formation”. Besides, in assay [6], the “ability of new object recognition” value was “showed efficacy to improve ability of new object recognition”; the “recovery of memory loss and loss of other activities” value was “recovery of memory loss and other activity loss”. For the same substance, the glioma growth result in assay [6] (xenograft model from C6 cell line) is listed as “significantly inhibited glioma growth”.
Consider “Coproporphyrin III tetramethyl ester [AG-1503]”, for which the PC4 inhibition entry in assay [1] is reported as “strong PC4 inhibitor”. In assay [2], the “inhibition of growth of glioma cell line C6” value was “inhibition of rat glioblastoma cell line C6; also recorded: specific inhibitory activity on growth of glioma cell line C6”. Also, the “inhibition of growth of NSCLC cell lines” value in assay [3] is on record as “inhibition of human non-small cell lung cancer cell line H841; also recorded: not significant inhibitory activity on growth of NSCLC cell lines”. Further, in assay [6], the “ability of new object recognition” value is “showed efficacy to improve ability of new object recognition”; the “recovery of memory loss and loss of other activities” value was “better activity for recovering memory loss and loss of other activities”. Moreover, the “open-field anxiety and activity” value in assay [6] (rats with glioma) is “improvement of anxiety and activity”.
